The source made the active and inactive calls.
Columns and labels:
[1] = viability loss in Vero cells – cytotoxicity control for Vif-APOBEC3G degradation inhibitor project, dose response (AID 1117358); type: functional; settings: Vero
[2] = HIV-1 Vif–A3G interaction blockers – biochemical, TR-FRET, GST-Vif 1-94, biotin-A3G peptide, dose response retest, primary screen (AID 1117319); type: functional;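 further: TR-FRET signal of purified GST-Vif binding a biotinylated A3G peptide; inhibitors lower the FRET signal by blocking Vif and A3G binding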
[3] = Trypanosoma cruzi growth suppression in host cells – NIH3T3 host cells, beta-gal luminescence, confirmation (AID 2044); type: functional, cell-based;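 further: intracellular parasites grown in NIH/3T3 mouse fibroblasts as host cells; luminescent beta-galactosidase reporter signal from transgenic T. cruzi replicating inside host cells; inhibitors lower the luminescence signal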
INS1 = assay: INS-1E survival protection against cytokine death – cell-based, luminescence, retest, dose response (AID 449756); type: functional; settings: Rattus norvegicus;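 further: cell death triggered by IL-1 beta plus TNF-alpha plus IFN-gamma mixture; protective hits raise ATP signal compared with cytokine alone wells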
Coagulation factor XII = target: T1, Coagulation factor XII (Homo sapiens, UniProt P00748); type: functional;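 further: activated factor XIIa alpha cleaving a fluorogenic AMC peptide substrate; inhibitor potency from loss of enzyme activity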
T1 sequence (P00748 whole entry): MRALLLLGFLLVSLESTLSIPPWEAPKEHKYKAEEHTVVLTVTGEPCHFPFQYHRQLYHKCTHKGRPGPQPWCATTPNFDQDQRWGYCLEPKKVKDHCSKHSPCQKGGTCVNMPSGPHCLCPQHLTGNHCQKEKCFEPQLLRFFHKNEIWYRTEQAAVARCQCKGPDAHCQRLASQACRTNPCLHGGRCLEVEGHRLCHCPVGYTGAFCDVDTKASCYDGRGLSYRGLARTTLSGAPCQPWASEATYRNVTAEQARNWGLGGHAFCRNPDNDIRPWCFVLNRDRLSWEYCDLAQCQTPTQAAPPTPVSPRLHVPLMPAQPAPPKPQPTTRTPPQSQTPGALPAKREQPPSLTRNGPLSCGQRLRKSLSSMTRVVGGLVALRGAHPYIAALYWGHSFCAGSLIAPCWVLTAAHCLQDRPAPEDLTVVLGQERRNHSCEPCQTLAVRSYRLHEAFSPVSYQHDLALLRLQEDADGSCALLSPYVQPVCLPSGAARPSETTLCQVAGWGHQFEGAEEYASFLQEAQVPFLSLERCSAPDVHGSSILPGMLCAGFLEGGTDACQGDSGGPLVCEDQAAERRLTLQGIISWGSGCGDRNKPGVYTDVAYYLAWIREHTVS

[4] = NIH3T3 cell viability loss – ATP luminescence, mouse fibroblasts, counter-screen, dose response (AID 2010); type: functional, cell-based;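 further: cells exposed to compound for about 90 hours before reading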
[5] = target: T2, Sphingosine 1-phosphate receptor 2 (Homo sapiens, UniProt O95136); assay: Dose Response Cell Based Assay for Agonists of the S1P2 Receptor. [Related pubchem assays: 729, 736, 843 ]; type: functional
[6] = blockade of melanocortin 4 receptor signaling – cell-based, plate reader, cherry pick, counter-screen for LGR2 antagonist project, dose response (AID 743444); type: functional;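 further: transfected HEK 293 cells stimulated with alpha-MSH peptide; potency of inhibitors of the alpha-MSH evoked signal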
[7] = Late stage counterscreen results from the probe development effort to identify activators of signal transducer and activator of transcription 1 (STAT1): luminescence-based cell-based dose response assay to identify cytotoxic compounds.; type: functional
[8] = blockers of bursicon-stimulated LGR2 cAMP reporter – cell-based, HEK293, CRE-luciferase reporter, cherry pick, set 2, dose response (AID 743343); type: functional;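 further: transfected cells were stimulated with diluted bursicon conditioned medium after compound addition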
[9] = target: E3 ubiquitin-protein ligase Mdm2 (Homo sapiens, UniProt Q00987); assay: MDM2-luc reporter signal enhancers, multi-concentration potency testing, MDM2 ubiquitin-protein ligase inhibitor program, whole-cell format, luminescence detection, 384-well microplate (AID 1394); type: functional;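 further: MDM2 E3 inhibitors raise luminescence so EC50 is for signal enhancement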
[10] = target: T2, Sphingosine 1-phosphate receptor 2; assay: Dose Response Cell Based Assay for Antagonists of the S1P2 Receptor. [Related pubchem assays: 856, 736 ]; type: functional
[11] = target: Bifunctional protein GlmU (Mycobacterium tuberculosis, UniProt P9WMN3); assay: Inhibitors of Mycobacterial Glucosamine-1-phosphate acetyl transferase (GlmU). Secondary screen.; parameters: species or system Mycobacterium tuberculosis H37Rv
Aminopeptidase N = target: T3, Aminopeptidase N (Plasmodium falciparum FcB1/Columbia, UniProt O96935); assay: malaria alanyl aminopeptidase activity blockers – biochemical, fluorogenic H-Leu-NHMec substrate, 1536-well (AID 1445); parameters: species or system Plasmodium falciparum 3D7, 3D7
T3 sequence (O96935 whole entry): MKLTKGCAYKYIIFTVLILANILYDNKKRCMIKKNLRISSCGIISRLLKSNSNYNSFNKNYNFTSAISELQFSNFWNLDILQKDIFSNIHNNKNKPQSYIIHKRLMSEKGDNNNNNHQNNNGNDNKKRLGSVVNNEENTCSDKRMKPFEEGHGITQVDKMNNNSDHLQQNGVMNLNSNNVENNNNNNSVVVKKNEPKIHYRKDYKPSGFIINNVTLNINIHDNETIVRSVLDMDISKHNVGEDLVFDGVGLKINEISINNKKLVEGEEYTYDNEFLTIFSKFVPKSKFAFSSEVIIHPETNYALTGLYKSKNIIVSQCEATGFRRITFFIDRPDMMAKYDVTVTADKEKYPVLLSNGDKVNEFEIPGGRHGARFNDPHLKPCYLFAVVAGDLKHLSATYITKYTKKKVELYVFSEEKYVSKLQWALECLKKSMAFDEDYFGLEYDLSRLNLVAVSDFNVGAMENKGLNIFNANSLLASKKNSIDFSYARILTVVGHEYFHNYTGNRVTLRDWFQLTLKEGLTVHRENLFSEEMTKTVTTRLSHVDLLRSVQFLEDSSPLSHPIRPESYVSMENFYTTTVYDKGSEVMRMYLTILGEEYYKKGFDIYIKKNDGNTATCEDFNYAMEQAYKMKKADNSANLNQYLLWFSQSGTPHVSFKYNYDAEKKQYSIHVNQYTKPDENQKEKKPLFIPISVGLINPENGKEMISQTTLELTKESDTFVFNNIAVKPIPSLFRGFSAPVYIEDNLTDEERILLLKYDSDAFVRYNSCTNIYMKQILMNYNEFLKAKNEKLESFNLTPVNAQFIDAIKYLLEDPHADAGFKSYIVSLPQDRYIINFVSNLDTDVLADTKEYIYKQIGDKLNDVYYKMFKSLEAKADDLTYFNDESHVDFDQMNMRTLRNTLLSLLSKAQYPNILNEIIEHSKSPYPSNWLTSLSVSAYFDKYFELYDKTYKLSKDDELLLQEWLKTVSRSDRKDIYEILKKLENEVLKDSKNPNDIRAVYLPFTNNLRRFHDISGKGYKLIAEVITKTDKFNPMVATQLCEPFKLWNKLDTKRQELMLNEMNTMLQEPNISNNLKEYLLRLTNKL

NADPH oxidase 1 = NADPH oxidase 1 (Homo sapiens, UniProt Q9Y5S8); assay: Late-stage luminescence-based cell-based dose response assay to identify inhibitors of NADPH oxidase 1 (NOX1): Synthesized analogs 2.; type: functional
Cytochrome P450 2C19 = Cytochrome P450 2C19 (Homo sapiens, UniProt P33261); assay: qHTS Assay for Inhibitors and Substrates of Cytochrome P450 2C19. [Related pubchem assays: 410 ]; type: ADME; settings: read-out: Potency
Cytochrome P450 2C9 = Cytochrome P450 2C9 (Homo sapiens, UniProt P11712); settings: Potency
Cytochrome P450 2C9, sequence (P11712 whole entry): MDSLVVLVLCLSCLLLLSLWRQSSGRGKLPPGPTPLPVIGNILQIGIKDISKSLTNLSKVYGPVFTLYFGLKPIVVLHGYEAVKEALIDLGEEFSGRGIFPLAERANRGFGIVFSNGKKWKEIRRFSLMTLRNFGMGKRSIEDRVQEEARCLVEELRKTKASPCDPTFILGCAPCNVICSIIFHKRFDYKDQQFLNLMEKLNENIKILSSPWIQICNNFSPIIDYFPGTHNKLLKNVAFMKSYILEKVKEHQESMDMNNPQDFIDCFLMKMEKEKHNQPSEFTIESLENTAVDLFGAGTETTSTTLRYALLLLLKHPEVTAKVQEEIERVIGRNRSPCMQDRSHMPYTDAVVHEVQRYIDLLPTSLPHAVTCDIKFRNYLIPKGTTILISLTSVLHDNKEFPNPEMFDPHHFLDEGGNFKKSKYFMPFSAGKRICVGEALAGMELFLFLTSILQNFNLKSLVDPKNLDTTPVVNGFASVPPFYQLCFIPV

T2 sequence (O95136 whole entry): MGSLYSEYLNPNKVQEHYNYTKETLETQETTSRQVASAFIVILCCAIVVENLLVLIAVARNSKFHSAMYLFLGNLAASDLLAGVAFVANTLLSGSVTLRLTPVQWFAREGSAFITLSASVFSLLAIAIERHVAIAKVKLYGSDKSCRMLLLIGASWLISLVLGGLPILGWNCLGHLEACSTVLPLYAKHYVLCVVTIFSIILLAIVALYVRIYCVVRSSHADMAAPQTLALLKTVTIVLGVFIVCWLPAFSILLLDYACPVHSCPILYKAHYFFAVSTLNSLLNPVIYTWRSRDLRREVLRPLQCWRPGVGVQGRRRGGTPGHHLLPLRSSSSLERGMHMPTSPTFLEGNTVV
Bifunctional protein GlmU, sequence (P9WMN3 whole entry): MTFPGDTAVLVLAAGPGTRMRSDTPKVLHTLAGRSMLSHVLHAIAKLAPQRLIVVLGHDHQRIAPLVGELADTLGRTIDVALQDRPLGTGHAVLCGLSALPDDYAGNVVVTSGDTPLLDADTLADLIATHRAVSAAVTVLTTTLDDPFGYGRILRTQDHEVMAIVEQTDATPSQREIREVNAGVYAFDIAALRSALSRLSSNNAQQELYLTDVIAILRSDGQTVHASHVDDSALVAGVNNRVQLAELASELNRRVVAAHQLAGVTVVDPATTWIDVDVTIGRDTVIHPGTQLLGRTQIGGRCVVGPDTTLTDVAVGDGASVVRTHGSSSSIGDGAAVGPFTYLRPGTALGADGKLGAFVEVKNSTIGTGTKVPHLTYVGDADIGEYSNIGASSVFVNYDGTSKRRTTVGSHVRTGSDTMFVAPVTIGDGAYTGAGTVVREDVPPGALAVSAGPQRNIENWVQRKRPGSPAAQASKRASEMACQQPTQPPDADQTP
NADPH oxidase 1, sequence (Q9Y5S8 whole entry): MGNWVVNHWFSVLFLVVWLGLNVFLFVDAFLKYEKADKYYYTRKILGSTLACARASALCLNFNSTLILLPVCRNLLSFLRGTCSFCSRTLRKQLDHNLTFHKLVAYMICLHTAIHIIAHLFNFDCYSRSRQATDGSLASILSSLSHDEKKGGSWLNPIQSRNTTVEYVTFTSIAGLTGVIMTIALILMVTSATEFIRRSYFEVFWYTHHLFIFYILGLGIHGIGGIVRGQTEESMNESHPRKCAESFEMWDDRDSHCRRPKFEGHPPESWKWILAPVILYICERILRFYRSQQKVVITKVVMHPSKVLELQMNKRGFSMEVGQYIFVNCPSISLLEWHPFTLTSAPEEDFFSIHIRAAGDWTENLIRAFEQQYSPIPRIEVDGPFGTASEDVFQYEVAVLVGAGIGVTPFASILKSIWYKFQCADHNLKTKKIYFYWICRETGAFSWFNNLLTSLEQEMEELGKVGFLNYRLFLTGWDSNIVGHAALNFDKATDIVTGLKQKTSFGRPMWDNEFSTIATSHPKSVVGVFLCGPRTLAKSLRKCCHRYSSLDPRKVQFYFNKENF
Cytochrome P450 2C19, sequence (P33261 whole entry): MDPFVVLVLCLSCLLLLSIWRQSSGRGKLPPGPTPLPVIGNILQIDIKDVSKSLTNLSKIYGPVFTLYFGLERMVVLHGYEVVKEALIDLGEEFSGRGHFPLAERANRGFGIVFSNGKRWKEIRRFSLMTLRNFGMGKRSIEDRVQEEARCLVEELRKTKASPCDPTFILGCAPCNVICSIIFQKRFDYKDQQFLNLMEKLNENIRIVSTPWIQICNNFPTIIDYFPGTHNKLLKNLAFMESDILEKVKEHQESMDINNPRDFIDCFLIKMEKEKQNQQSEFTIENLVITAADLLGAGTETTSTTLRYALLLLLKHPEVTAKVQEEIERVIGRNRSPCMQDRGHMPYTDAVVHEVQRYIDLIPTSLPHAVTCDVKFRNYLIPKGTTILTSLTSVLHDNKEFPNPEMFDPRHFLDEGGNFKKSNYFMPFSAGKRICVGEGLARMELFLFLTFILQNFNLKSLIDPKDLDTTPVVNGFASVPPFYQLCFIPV
E3 ubiquitin-protein ligase Mdm2, sequence (Q00987 whole entry): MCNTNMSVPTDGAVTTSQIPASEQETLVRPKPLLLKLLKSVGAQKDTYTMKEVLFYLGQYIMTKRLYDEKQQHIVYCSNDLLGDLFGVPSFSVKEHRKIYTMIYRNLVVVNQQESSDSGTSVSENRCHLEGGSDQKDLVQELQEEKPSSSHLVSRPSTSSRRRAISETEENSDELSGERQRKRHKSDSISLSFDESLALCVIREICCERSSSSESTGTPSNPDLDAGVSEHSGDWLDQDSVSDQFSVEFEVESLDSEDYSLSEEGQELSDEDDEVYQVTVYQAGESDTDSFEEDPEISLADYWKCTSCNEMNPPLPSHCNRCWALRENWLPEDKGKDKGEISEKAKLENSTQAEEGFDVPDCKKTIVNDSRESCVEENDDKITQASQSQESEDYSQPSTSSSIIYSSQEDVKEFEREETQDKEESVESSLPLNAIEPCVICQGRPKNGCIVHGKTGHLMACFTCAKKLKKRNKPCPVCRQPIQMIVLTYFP

For `Cc1ccccc1N1CCN(Cc2c[nH]c3ccccc23)CC1`, the CC50 [1] was > 40 µM (active), the IC50 [2] was > 100 µM (active) and the EC50 [3] was 0.623 µM (active). For the same compound, the AC50 (INS1) was 7.61 µM (active), the IC50 (Coagulation factor XII) was > 50 µM (inactive) and the EC50 [4] was > 60 µM (not active).
With `Oc1cccc(C(=S)N2CCN(Cc3ccccc3)CC2)c1` the EC50 [5] was > 50 µM (not active).
For `COc1ccc(-c2cc(C)nc3c(-c4ccccc4)cnn23)cc1`, the AC50 [6] was 20.1 µM (active), the IC50 [7] was > 55.7 µM (not active) and the AC50 [8] was 15.9 µM (active).
In the case of `CC(C)Oc1ccc(C(=O)NC(=S)N2CCOCC2)cc1`, the EC50 [9] is reported as 25 µM (not active).
For `CCOC(=O)C1C(=O)CC(C)(O)C(C(=O)OCC)C1c1ccccc1` (configuration not stated), the IC50 [10] was > 50 µM (not active).
With `O=C(CCCN1C(=O)/C(=C/c2ccco2)SC1=S)Nc1ccccc1C(=O)O` the IC50 [11] was 86 µM (active) and the IC50 (Aminopeptidase N) was 102 µM (active).
For `CC(=O)c1ccc2c(c1)N(C(=O)Nc1ccccc1)c1ccccc1S2`, the IC50 (NADPH oxidase 1) was 1.56 µM (active).
With `CC(C)C[C@@H](CC(=O)N[C@@H](CCCN)CC(=O)N[C@@H]1CCCC[C@H]1C(=O)N[C@H](CC(=O)N[C@@H](CCC(=O)O)CC(=O)O)Cc1ccccc1)NC(=O)[C@@H]1CCCC[C@H]1N` the AC50 (Cytochrome P450 2C19) was 39.8 µM (inconclusive) and the AC50 (Cytochrome P450 2C9) was 3.98 µM (inconclusive).

Reference: ChEMBL document CHEMBL1201862, “PubChem BioAssay data set” (2004)
